Earlier results, collected in patent US10238678B2, “Therapeutic methods” (GlaxoSmithKline LLC, priority 2011, dated 2019).

NC(=O)c1ncn([C@@H]2O[C@H](CO)[C@@H](O)[C@H]2O)n1 [Ribavirin]
patients with significant hemolysis (currently recommended doses): 10-20% | teratogenicity and embryotoxicity (in vivo): teratogenic and embryotoxic
